Assay results reported in patent US7507739B2, “6-[(substituted)phenyl]triazolopyrimidines as anticancer agents” (Wyeth, priority 2003, dated 2009).
Where two headings read alike, the source gives them in different places. Values belong to the compound of their own block, whether it stands above or below them.

Experiments:
tubulin heterodimer = experiment: Competitive binding test, [3H]vinblastine; design: species or system bovine; conditions: [3H]vinblastine 100 nM
Description: Medium is RPMI-1640 with L-glutamine, supplemented with 10% heat-inactivated fetal calf serum, 100 units/ml penicillin, and 100 μg/ml streptomycin (Gibco, Grand Island, N.Y.). Microtubule-associated protein (MAP)-rich tubulin, containing about 70% tubulin and 30% MAPs (#ML113), and highly purified tubulin (>99% pure, #TL238), both from bovine brain, are obtained from Cytoskeleton, Inc., Denver, Colo. PEM buffer (80 mM piperazine-N,N′-bis[2-ethanesulfonic acid], pH 6.9, 1 mM ethylene glycol-bis(β-aminoethyl ether)-N,N,N′,N′-tetraacetic acid, 1 mM magnesium chloride) and guanosine 5′-triphosphate (GTP) are also obtained from Cytoskeleton. [3H]paclitaxel, specific activity 14.7 Ci/mmol, is purchased from Moravek Biochemicals (Brea, Calif.). [^3H]vinblastine, specific activity 9.60 Ci/mmol and MicroSpin G-50 columns are obtained from Amersham Biosciences (Piscataway, N.J.). […] Other reagents are obtained from Sigma (St. Louis, Mo.).
The binding of examples of this invention to highly purified tubulin is studied by competitive inhibition methods. […] To study possible competition at the taxane site, on the other hand, polymerized tubulin (microtubules) is used because paclitaxel binds preferentially to microtubules.
Highly purified tubulin is dissolved in PEM buffer without GTP and used at a final concentration of 1.0 to 1.3 mg/ml (10 to 13 μM). […] These solutions are incubated at 24° for 1 hr and then applied to MicroSpin G-50 columns which are centrifuged for 2 min at 3000 rpm in an Eppendorf 5415C microfuge. An aliquot of each column effluent (containing tubulin and bound radioligand) is mixed with scintillation fluid and counted in a liquid scintillation spectrometer. […] The ability of the competitor to inhibit the binding of the radioligand is expressed as a percentage of control binding in the absence of any competitor.

S1 cells = experiment: MTS cytotoxicity test with S1 cells; assay type: cell-based; conditions: Homo sapiens
Source text: (§1) Human cancer cell lines, unless otherwise noted, are obtained from the American Type Culture Collection (Rockville, Md.). The following drug-sensitive parental cell lines, and their derived drug-resistant counterparts, are obtained from the originators as listed: (a) S1 (parental line from a subclone of human colon carcinoma line LS174T) and derived S1-M1-3.2 (herein called S1-M1) which expresses the MXR drug transporter protein, are provided by Dr. L. Greenberger, Wyeth Research (Rabindran, S. K., He, H., Singh, M., Brown, E., Collins, K. I., Annable, T., and Greenberger, L. M. Reversal of a novel multidrug resistance mechanism in human colon carcinoma cells by fumitremorgin C. Cancer Res., 58:5850-5858,1998); (b) parental HL-60 human promyelocytic leukemia line and derived HL-60/ADR, which expresses the MRP1 drug transporter protein, are provided by Dr. M. Center, University of Kansas (McGrath, T., and Center, M. S. Adriamycin resistance in HL60 cells in the absence of detectable P-glycoprotein. Biochem. Biophys. […] J. Biol. Chem., 261: 7762-7770,1986) via Dr. L. Greenberger, Wyeth Research.
(§2) The assay, which is sold in kit form by Promega (Madison, Wis.; CellTiter 96 AQueous Non-Radioactive Cell Proliferation Assay), is based on the conversion by viable cells, but not by dead cells, of the tetrazolium salt, MTS (3-(4,5-dimethylthiazol-2-yl)-5-(3-carboxymethoxyphenyl)-2-(4-sulphophenyl)-2H-tetrazolium, inner salt), into a water-soluble colored formazan which is detected by spectrophotometry. Compounds are tested at nine concentrations, in order to determine IC50 values. For the test procedure, cells are harvested by trypsinization (or, in the case of non-adherent cells, by simple resuspension), washed, counted and distributed to wells of 96-well flat-bottom microtiter plates at 1000 cells per well in 200 μL of medium. In addition, one row of wells on a separate plate received cells as above (“time 0” plate). All plates are incubated at 37° in humidified 5% CO2 in air for about 24 hr.
(§3) On day 2, compounds for test are diluted and added to wells. Compounds are dissolved in DMSO at 10 mg/mL. For each compound, nine serial 2-fold dilutions are prepared in DMSO. Ten μL of each dilution in DMSO is transferred to 100 μL of medium, mixed well, and then 5 μL of this dilution is transferred in quadruplicate to wells containing cells. […] Plates are returned to the incubator for three days. At the time of drug addition to the experimental plates, the MTS assay is run on the “time 0” plate. This produced the “time 0 MTS value” which is related to the number of viable cells per well at the time of drug addition.
(§4) After three days of culture with test compounds (day 5 overall), the MTS assay is done on all wells of the experimental plates. The absorbance values of the quadruplicate sample wells are averaged and divided by the average of the “time 0” values. […] The nine values for each compound are plotted against concentration, and the concentration that produced a relative color yield half way between the maximum and minimum is taken as the IC50 value.
S1-M1 cells overexpress the MXR transporter which mediates resistance to some chemotherapeutics (Gottesman, M. M., Fojo, T., and Bates, S. E. Miltidrug resistance in cancer: role of ATP-dependent transporters. Nature Rev. Cancer, 2: 48-58, 2002). The IC50 values of representative examples of this invention, as well as reference compounds, on S1-M1 are compared to values on the sensitive parental S1 line.

KB cells = experiment: MTS cytotoxicity test with KB cells; assay type: cell-based; conditions: Homo sapiens, read-out: IC50 KB
Source text: as §1, §2, §3, §4
The KB lines express different amounts of the P-glycoprotein (MDR1) membrane pump which produces resistance to the action of many cytotoxic compounds, including paclitaxel and vincristine. The parental KB line expresses no P-glycoprotein, KB-8-5 expresses moderate levels of the protein, and KB-V1 expresses very high levels.

SMILES: C[C@H](Nc1c(-c2c(F)cc(OCCCN(C)C)cc2F)c(Cl)nc2ncnn12)C(F)(F)F.Cl [Example 1a, 5-chloro-6-{4-[3-(dimethylamino)propoxy]-2,6-difluorophenyl}-N-[(1S)-2,2,2-trifluoro-1-methylethyl][1,2,4]triazolo[1,5-a]pyrimidin-7-amine hydrogen chloride Salt]
[3H]Vinblastine binding, percent of control without competitor, Mean (tubulin heterodimer): 12%
IC50 (S1 cells): 73 nM
IC50 (KB cells; KB cells, MTS): 28 nM

SMILES: CNCCCOc1cc(F)c(-c2c(Cl)nc3ncnn3c2N[C@@H](C)C(F)(F)F)c(F)c1.Cl [Example 2a, 5-Chloro-6-{2,6-difluoro-4-[3-(methylamino)propoxy]phenyl}-N-[(1S)-2,2,2-trifluoro-1-methylethyl][1,2,4]triazolo[1,5-a]pyrimidin-7-amine hydrogen chloride]
[3H]Vinblastine binding, percent of control without competitor, Mean (tubulin heterodimer): 11%
IC50 (S1 cells): 70 nM
IC50 (KB cells; KB): 24 nM

SMILES: CNCCCOc1cc(F)c(-c2c(Cl)nc3ncnn3c2NCC(F)(F)F)c(F)c1.Cl [Example 3a, 5-Chloro-6-{2,6-difluoro-4-[3-(methylamino)propoxy]phenyl}-N-(2,2,2-trifluoroethyl)[1,2,4]triazolo[1,5-a]pyrimidin-7-amine hydrogen chloride Salt]
[3H]Vinblastine binding, percent of control without competitor, Mean (tubulin heterodimer): 11%
IC50 (S1 cells): 61 nM
IC50 (KB cells; KB cells, MTS): 18 nM

SMILES: CN(C)CCCOc1cc(F)c(-c2c(Cl)nc3ncnn3c2NCC(F)(F)F)c(F)c1.Cl [Example 4a, 5-Chloro-6-{4-[3-(dimethylamino)propoxy]-2,6-difluorophenyl}-N-(2,2,2-trifluoroethyl)[1,2,4]triazolo[1,5-a]pyrimidin-7-amine Hydrogen chloride Salt]
[3H]Vinblastine binding, percent of control without competitor, Mean (tubulin heterodimer): 15%
IC50 (S1 cells): 72 nM
IC50 (KB cells; KB cells, MTS): 24 nM

SMILES: C[C@H](Nc1c(-c2c(F)cc(OCCCO)cc2F)c(Cl)nc2ncnn12)C(F)(F)F [Example 20, 3-[4-(5-Chloro-7-{[(1S)-2,2,2-trifluoro-1-methylethyl]amino}[1,2,4]triazolo[1,5-a]pyrimidin-6-yl)-3,5-difluorophenoxy]propan-1-ol]
[3H]Vinblastine binding, percent of control without competitor, Mean (tubulin heterodimer): 19%
IC50 (S1 cells): 85 nM
IC50 (KB cells; KB cells, MTS): 57 nM

SMILES: C[C@H](Nc1c(-c2c(F)cc(OCCCN(C)C)cc2F)c(Br)nc2ncnn12)C(F)(F)F [Example 25, 5-Bromo-6-{4-[3-(dimethylamino)propoxy]-2,6-difluorophenyl}-N-[(1S)-2,2,2-trifluoro-1-methylethyl][1,2,4]triazolo[1,5-a]pyrimidin-7-amine]
[3H]Vinblastine binding, percent of control without competitor, Mean (tubulin heterodimer): 14%
IC50 (S1 cells): 106 nM
IC50 (KB cells; KB cells, MTS): 59 nM

Now from value to compound, other results behind:

[3H]Vinblastine binding, percent of control without competitor, Mean (tubulin heterodimer): 14%
SMILES: OCCCOc1cc(F)c(-c2c(Cl)nc3ncnn3c2C2CCCCCC2)c(F)c1 [Example 30, 3-[4-(5-Chloro-7-cycloheptyl[1,2,4]triazolo[1,5-a]pyrimidin-6-yl)-3,5-difluorophenoxy]propan-1-ol]
IC50 (S1 cells): 66 nM
IC50 (KB cells; KB cells, MTS): 72 nM

[3H]Vinblastine binding, percent of control without competitor, Mean (tubulin heterodimer): 15%
SMILES: CNCCCOc1cc(F)c(-c2c(Cl)nc3ncnn3c2C2CCCCCC2)c(F)c1.O=C(O)C(F)(F)F [Example 32, 3-[4-(5-Chloro-7-cycloheptyl[1,2,4]triazolo[1,5-a]pyrimidin-6-yl)-3,5-difluorophenoxy]-N-methylpropan-1-amine trifluoroacetic acid salt]
IC50 (S1 cells): 11 nM
IC50 (KB cells; KB cells, MTS): 11 nM

[3H]Vinblastine binding, percent of control without competitor, Mean (tubulin heterodimer): 92%
SMILES: CC(=O)O[C@H]1C(=O)[C@@]2(C)[C@H]([C@H](OC(=O)c3ccccc3)[C@]3(O)C[C@H](OC(=O)[C@H](O)[C@@H](NC(=O)c4ccccc4)c4ccccc4)C(C)=C1C3(C)C)[C@]1(OC(C)=O)CO[C@@H]1C[C@@H]2O [Paclitaxel, reference compound]
IC50 (S1 cells): 8.1 nM
IC50 (KB cells; KB cells, MTS): 2.9 nM

[3H]Vinblastine binding, percent of control without competitor, Mean (tubulin heterodimer): 5%
SMILES: CC[C@]1(O)C[C@H]2CN(CCc3c([nH]c4ccccc34)[C@@](C(=O)OC)(c3cc4c(cc3OC)N(C=O)[C@H]3[C@@](O)(C(=O)OC)[C@H](OC(C)=O)[C@]5(CC)C=CCN6CC[C@]43[C@@H]65)C2)C1 [Vincristine, reference compound]
IC50 (S1 cells): 5.6 nM
IC50 (KB cells; KB cells, MTS): 6.4 nM
